In this experiment the target is T1, Acetylcholinesterase (Rattus norvegicus, UniProt P37136).
T1 sequence (P37136 whole entry): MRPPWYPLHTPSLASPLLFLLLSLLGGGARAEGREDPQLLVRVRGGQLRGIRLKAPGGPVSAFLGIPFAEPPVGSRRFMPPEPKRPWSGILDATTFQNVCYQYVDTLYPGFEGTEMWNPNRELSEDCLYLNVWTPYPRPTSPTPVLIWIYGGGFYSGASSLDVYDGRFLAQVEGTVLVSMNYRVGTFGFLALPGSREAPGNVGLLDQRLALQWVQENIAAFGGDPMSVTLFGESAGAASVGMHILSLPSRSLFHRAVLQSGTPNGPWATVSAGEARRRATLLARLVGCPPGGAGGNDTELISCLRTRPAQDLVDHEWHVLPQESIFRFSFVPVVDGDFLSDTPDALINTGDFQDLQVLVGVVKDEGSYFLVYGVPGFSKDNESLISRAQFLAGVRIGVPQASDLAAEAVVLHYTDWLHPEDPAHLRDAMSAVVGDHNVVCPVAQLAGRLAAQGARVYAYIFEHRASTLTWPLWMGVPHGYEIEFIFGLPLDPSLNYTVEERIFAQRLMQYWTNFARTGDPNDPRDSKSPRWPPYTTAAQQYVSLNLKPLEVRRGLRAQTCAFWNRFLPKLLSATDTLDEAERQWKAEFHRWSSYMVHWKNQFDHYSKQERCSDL
The experiment is described as follows: Inhibition of Wistar rat brain AChE. The settings on record: read-out: I50.

The structures appear in SMILES notation. pIC50: −log10 of the molar value.

The text below walks through data of ChEMBL document CHEMBL1148172, “A New Diterpene from a Soft Coral, Sinularia dissecta” (J Nat Prod, 1993).

`C=C(C)[C@H]1C/C=C(/C(=O)OC)C(O)C(=O)C[C@@](C)(O)CC2=CC(C(=O)OC)=C(C1)O2` (stereo partly specified): the pIC50 was 4.20.
